From patent US8598086B2, “3-halo-(arly)-4-iminotetrahydropicolinates and their use as herbicides” (Dow AgroSciences, LLC., priority 2009, dated 2013)

Tests used:
Assay type in all cases: in vivo
[1] = tested on: giant foxtail (Setaria faberi); assay: Post-emergent Test I; settings: 10 d after treatment, scale 0 (no activity) to 100 (complete plant death)
Experimental: (§1) Post-emergent Test I: Weed seeds were obtained from commercial suppliers and planted into 5″-round pots containing soilless media mix (Metro-Mix 360®, Sun Gro Horticulture Canada CM Ltd. Vancouver, British Columbia) 8-12 d prior to application and cultured in a greenhouse equipped with supplemental light sources to provide a 16 h photoperiod at 24-29° C. All pots were surface irrigated. Compounds were dissolved in a 97:3 v/v (volume per volume) mixture of acetone and dimethyl sulfoxide (DMSO) and diluted to the appropriate concentration in a final application solution containing water, acetone, isopropyl alcohol, DMSO and Agri-dex (crop oil concentrate) in a 59:23:15:1.0:1.5 v/v ratio and 0.02% w/v (weight per volume) of Triton X-155 to obtain the spray solution containing the highest application rate. The high application rate was serial diluted with the above application solution to provide delivery of the compound at rates 1/2×, 1/4× and 1/8× of the highest rate (equivalent to 4.0, 2.0, 1.0, and 0.5 kg/ha, respectively). Formulated compound (2.7 mL) was applied using a DeVilbiss® compressed air sprayer at 2-4 pounds per square inch (psi) […]. Following treatment, pots were allowed to dry before being returned to the greenhouse for the duration of the experiment and subirrigated as needed. All pots were fertilized one time per week by subirrigating with Peters Peat-Lite Special® fertilizer (20-10-20). Phytotoxicity ratings were obtained 10 d after treatment. All evaluations were made on a scale of 0 to 100 where 0 represents no activity and 100 represents complete plant death.

[2] = tested on: ivyleaf morningglory (Ipomoea hederacea); assay: Post-emergent Test I; settings: 10 d after treatment, scale 0 (no activity) to 100 (complete plant death)
Experimental: as §1

[3] = tested on: sunflower (Helianthus annuus); assay: Post-emergent Test I; settings: 10 d after treatment, scale 0 (no activity) to 100 (complete plant death)
Experimental: as §1

[4] = tested on: wild oat (Avena fatua); assay: Post-emergent Test I; settings: 10 d after treatment, scale 0 (no activity) to 100 (complete plant death)
Experimental: as §1

[5] = tested on: giant foxtail (Setaria faberi); assay: Pre-emergent Test I; settings: 14 d after treatment, scale 0 (no herbicidal effect) to 100 (plant death or lack of emergence)
Experimental: (§2) Pre-emergent Test I: Weed seeds were obtained from commercial suppliers and planted into round plastic pots (5-inch diameter) containing silt loam soil (23% sand, 52% silt, 29% clay, 2.9% organic matter, CEC 16.6, pH 7.2). After planting, all pots were subirrigated 16 h prior to compound application. Compounds were dissolved in a 97:3 v/v mixture of acetone and DMSO and diluted to the appropriate concentration in a final application solution containing water, acetone, isopropyl alcohol, DMSO and Agri-dex (crop oil concentrate) in a 59:23:15:1.0:1.5 v/v ratio and 0.02% w/v of Triton X-155 to obtain the spray solution containing the highest application rate. The high application rate was serial diluted with the above application solution to provide delivery of the compound at rates 1/2×, 1/4× and 1/8× of the highest rate (equivalent to 4.0, 2.0, 1.0, and 0.5 kg/ha, respectively). Formulated compound (2.7 mL) was pipetted evenly over the soil surface followed by incorporation with water (15 mL). Following treatment, pots were returned to the greenhouse for the duration of the experiment. The greenhouse was programmed for an approximate 15 h photoperiod which was maintained at about 23-29° C. during the day and 22-28° C. during the night. Nutrients and water were added on a regular basis through surface irrigation and supplemental lighting was provided with overhead metal halide 1000-Watt lamps as necessary. Herbicidal effect ratings were obtained 14 d after treatment. All evaluations were made relative to appropriate controls on a scale of 0 to 100 where 0 represents no herbicidal effect and 100 represents plant death or lack of emergence from the soil.

[6] = tested on: ivyleaf morningglory (Ipomoea hederacea); assay: Pre-emergent Test I; settings: 14 d after treatment, scale 0 (no herbicidal effect) to 100 (plant death or lack of emergence)
Experimental: as §2

[7] = tested on: pigweed (Amaranthus retroflexus); assay: Pre-emergent Test I; settings: 14 d after treatment, scale 0 (no herbicidal effect) to 100 (plant death or lack of emergence)
Experimental: as §2

[8] = tested on: sunflower (Helianthus annuus); assay: Pre-emergent Test I; settings: 14 d after treatment, scale 0 (no herbicidal effect) to 100 (plant death or lack of emergence)
Experimental: as §2

[9] = tested on: wild oat (Avena fatua); assay: Pre-emergent Test I; settings: 14 d after treatment, scale 0 (no herbicidal effect) to 100 (plant death or lack of emergence)
Experimental: as §2

[10] = tested on: pigweed (Amaranthus retroflexus); assay: Post-emergent Test I; settings: 10 d after treatment, scale 0 (no activity) to 100 (complete plant death)
Experimental: as §1

[11] = tested on: barnyardgrass (Echinochloa crus-galli); assay: Post-emergent Test II; settings: after 14 d, 0 = no injury, 100 = complete kill
Experimental: (§3) Post-emergent Test II: Seeds or nutlets of the desired test plant species were planted in Sun Gro Metro-Mix® 360 planting mixture, which typically has a pH of 6.0 to 6.8 and an organic matter content of about 30 percent, in plastic pots with a surface area of 64 square centimeters. When required to ensure good germination and healthy plants, a fungicide treatment and/or other chemical or physical treatment was applied. The plants were grown for 7-21 d in a greenhouse with an approximate 15 h photoperiod which was maintained at about 23-29° C. during the day and 22-28° C. during the night. Nutrients and water were added on a regular basis and supplemental lighting was provided with overhead metal halide 1000-Watt lamps as necessary. The plants were employed for testing when they reached the first or second true leaf stage.
(§4) A weighed amount, determined by the highest rate to be tested, of each test compound was placed in a 25 mL glass vial and was dissolved in 4 mL of a 97:3 v/v mixture of acetone and DMSO to obtain concentrated stock solutions. […] The concentrated stock solutions obtained were diluted with 20 mL of an aqueous mixture containing acetone, water, isopropyl alcohol, DMSO, Atplus 411F crop oil concentrate, and Triton® X-155 surfactant in a 48.5:39:10:1.5:1.0:0.02 v/v ratio to obtain spray solutions containing the highest application rates. Additional application rates were obtained by serial dilution of 12 mL of the high rate solution into a solution containing 2 mL of 97:3 v/v mixture of acetone and DMSO and 10 mL of an aqueous mixture containing acetone, water, isopropyl alcohol, DMSO, Atplus 411F crop oil concentrate, and Triton X-155 surfactant in a 48.5:39:10:1.5:1.0:0.02 v/v ratio to obtain 1/2×, 1/4×, 1/8× and 1/16× rates of the high rate. Compound requirements are based upon a 12 mL application volume at a rate of 187 liters per hectare (L/ha). Formulated compounds were applied to the plant material with an overhead Mandel track sprayer equipped with 8002E nozzles calibrated to deliver 187 L/ha over an application area of 0.503 square meters at a spray height of 18 inches (43 cm) above the average plant canopy height. Control plants were sprayed in the same manner with the solvent blank.
(§5) The treated plants and control plants were placed in a greenhouse as described above and watered by subirrigation to prevent wash-off of the test compounds. After 14 d, the condition of the test plants as compared with that of the untreated plants was determined visually and scored on a scale of 0 to 100 percent where 0 corresponds to no injury and 100 corresponds to complete kill.

[12] = tested on: bindweed (Polygonum convolvulus); assay: Post-emergent Test II; settings: after 14 d, 0 = no injury, 100 = complete kill
Experimental: as §3, §4, §5

[13] = tested on: lambsquarters (Chenopodium album); assay: Post-emergent Test II; settings: after 14 d, 0 = no injury, 100 = complete kill
Experimental: as §3, §4, §5

[14] = tested on: rice (Oryza sativa); assay: Post-emergent Test II; settings: after 14 d, 0 = no injury, 100 = complete kill
Experimental: as §3, §4, §5

[15] = tested on: velvetleaf (Abutilon theophrasti); assay: Post-emergent Test II; settings: after 14 d, 0 = no injury, 100 = complete kill
Experimental: as §3, §4, §5

SMILES: CCOC(=O)C1=C(Cl)/C(=N/OS(C)(=O)=O)CC(c2ccc(Cl)cc2F)N1 (stereo not drawn) [Compound 26, 3-chloro-6-(4-chloro-2-fluorophenyl)-4-[(E)-methanesulfonyloximino]-1,4,5,6-tetrahydropyridine-2-carboxylic acid ethyl ester]
- Phytotoxicity rating SETFA ([1]; 3760 g ai/ha): 100
- Phytotoxicity rating IPOHE ([2]; 3760 g ai/ha): 100
- Phytotoxicity rating HELAN ([3]; 3760 g ai/ha): 100
- Phytotoxicity rating AVEFA ([4]; 3760 g ai/ha): 95
- Herbicidal effect rating SETFA ([5]; 3760 g ai/ha): 70
- Herbicidal effect rating IPOHE ([6]; 3760 g ai/ha): 100
- Herbicidal effect rating AMARE ([7]; 3760 g ai/ha): 100
- Herbicidal effect rating HELAN ([8]; 3760 g ai/ha): 70
- Herbicidal effect rating AVEFA ([9]; 3760 g ai/ha): 10

SMILES: COC(=O)C1=C(Cl)/C(=N/OS(C)(=O)=O)CC(c2ccc(Cl)cc2)N1 (stereo not drawn) [Compound 27, 3-Chloro-6-(4-chlorophenyl)-4-[(E)-methanesulfonyloximino]-1,4,5,6-tetrahydropyridine-2-carboxylic acid methyl ester]
- Phytotoxicity rating SETFA ([1]; 3960 g ai/ha): 90
- Phytotoxicity rating IPOHE ([2]; 3960 g ai/ha): 85
- Phytotoxicity rating AMARE ([10]; 3960 g ai/ha): 100
- Phytotoxicity rating HELAN ([3]; 3960 g ai/ha): 95
- Phytotoxicity rating AVEFA ([4]; 3960 g ai/ha): 75
- Herbicidal effect rating SETFA ([5]; 3960 g ai/ha): 100
- Herbicidal effect rating IPOHE ([6]; 3960 g ai/ha): 100
- Herbicidal effect rating AMARE ([7]; 3960 g ai/ha): 100
- Herbicidal effect rating HELAN ([8]; 3960 g ai/ha): 100
- Herbicidal effect rating AVEFA ([9]; 3960 g ai/ha): 20

SMILES: COC(=O)C1=C(Cl)/C(=N/OS(C)(=O)=O)CC(c2ccc(Cl)c(OC)c2F)N1 (stereo not drawn) [Compound 29, 3-Chloro-6-(4-chloro-2-fluoro-3-methoxyphenyl)-4-[(E)-methanesulfonyloximino]-1,4,5,6-tetrahydropyridine-2-carboxylic acid methyl ester]
- Phytotoxicity rating SETFA ([1]; 4000 g ai/ha): 90
- Phytotoxicity rating IPOHE ([2]; 4000 g ai/ha): 95
- Phytotoxicity rating AMARE ([10]; 4000 g ai/ha): 100
- Phytotoxicity rating HELAN ([3]; 4000 g ai/ha): 90
- Phytotoxicity rating AVEFA ([4]; 4000 g ai/ha): 30
- Herbicidal effect rating SETFA ([5]; 4000 g ai/ha): 60
- Herbicidal effect rating IPOHE ([6]; 4000 g ai/ha): 95
- Herbicidal effect rating AMARE ([7]; 4000 g ai/ha): 100
- Herbicidal effect rating HELAN ([8]; 4000 g ai/ha): 80
- Herbicidal effect rating AVEFA ([9]; 4000 g ai/ha): 30
- Visual injury score ECHCG ([11]; 140 g ai/ha): 100%
- Visual injury score POLCO ([12]; 140 g ai/ha): 90%
- Visual injury score CHEAL ([13]; 140 g ai/ha): 100%
- Visual injury score ORYSA ([14]; 140 g ai/ha): 0%
- Visual injury score ABUTH ([15]; 140 g ai/ha): 100%

SMILES: CCOC(=O)C1=C(Cl)/C(=N/OS(C)(=O)=O)CC(c2ccc(Cl)c(OC)c2F)N1 (stereo not drawn) [Compound 30, 3-Chloro-6-(4-chloro-2-fluoro-3-methoxyphenyl)-4-[(E)-methanesulfonyloximino]-1,4,5,6-tetrahydropyridine-2-carboxylic acid ethyl ester]
- Phytotoxicity rating SETFA ([1]; 3400 g ai/ha): 85
- Phytotoxicity rating IPOHE ([2]; 3400 g ai/ha): 95
- Phytotoxicity rating AMARE ([10]; 3400 g ai/ha): 100
- Phytotoxicity rating HELAN ([3]; 3400 g ai/ha): 90
- Phytotoxicity rating AVEFA ([4]; 3400 g ai/ha): 30
- Herbicidal effect rating SETFA ([5]; 3400 g ai/ha): 100
- Herbicidal effect rating IPOHE ([6]; 3400 g ai/ha): 100
- Herbicidal effect rating AMARE ([7]; 3400 g ai/ha): 100
- Herbicidal effect rating HELAN ([8]; 3400 g ai/ha): 100
- Herbicidal effect rating AVEFA ([9]; 3400 g ai/ha): 95

SMILES: COC(=O)C1=C(Cl)/C(=N/OS(=O)(=O)c2ccc(C)cc2)CC(c2ccc(Cl)c(OC)c2F)N1 (stereo not drawn) [Compound 31, 3-Chloro-6-(4-chloro-2-fluoro-3-methoxyphenyl)-4-[(E)-p-toluenesulfonyloximino]-1,4,5,6-tetrahydropyridine-2-carboxylic acid methyl ester]
- Phytotoxicity rating SETFA ([1]; 4000 g ai/ha): 80
- Phytotoxicity rating IPOHE ([2]; 4000 g ai/ha): 90
- Phytotoxicity rating HELAN ([3]; 4000 g ai/ha): 90
- Phytotoxicity rating AVEFA ([4]; 4000 g ai/ha): 40
- Herbicidal effect rating SETFA ([5]; 4000 g ai/ha): 10
- Herbicidal effect rating IPOHE ([6]; 4000 g ai/ha): 100
- Herbicidal effect rating AMARE ([7]; 4000 g ai/ha): 100
- Herbicidal effect rating HELAN ([8]; 4000 g ai/ha): 100
- Herbicidal effect rating AVEFA ([9]; 4000 g ai/ha): 10

SMILES: COC(=O)C1=C(Br)/C(=N/OS(C)(=O)=O)CC(c2ccc(Cl)c(OC)c2F)N1 (stereo not drawn) [Compound 32, 3-bromo-6-(4-chloro-2-fluoro-3-methoxyphenyl)-4-[(E)-methanesulfonyloximino]-1,4,5,6-tetrahydropyridine-2-carboxylic acid methyl ester]
- Visual injury score ECHCG ([11]; 140 g ai/ha): 90%
- Visual injury score POLCO ([12]; 140 g ai/ha): 90%
- Visual injury score CHEAL ([13]; 140 g ai/ha): 100%
- Visual injury score ORYSA ([14]; 140 g ai/ha): 15%
- Visual injury score ABUTH ([15]; 140 g ai/ha): 100%

SMILES: COC(=O)C1=C(Cl)/C(=N/OC(C)=O)CC(c2ccc(Cl)c(OC)c2F)N1 (stereo not drawn) [Compound 35, 3-chloro-6-(4-chloro-2-fluoro-3-methoxyphenyl)-4-[(E)-acetoxyoximino]-3-chloro-1,4,5,6-tetrahydropyridine-2-carboxylic acid methyl ester]
- Visual injury score ECHCG ([11]; 70 g ai/ha): 90%
- Visual injury score POLCO ([12]; 70 g ai/ha): 100%
- Visual injury score CHEAL ([13]; 70 g ai/ha): 100%
- Visual injury score ORYSA ([14]; 70 g ai/ha): 0%
- Visual injury score ABUTH ([15]; 70 g ai/ha): 100%
